Results from US9301885B2, “Absorbent article” (UNICHARM CORPORATION, priority 2011, dated 2016).

Assay: Water solubility
Details: in 100 g of water at 25° C., 24 hours, visual evaluation
Source text: As used herein, the term “solubility” used herein in regard to water solubility includes cases where the sample completely dissolves in deionized water to form a homogeneous mixture, and cases where the sample is completely emulsified. As used herein, “completely” means that none of the sample remains in the deionized water.

## CCCCC(CC)C(=O)OCC(C)(C)COC(=O)C(CC)CCCC (centres unmarked) [H-208BRS, Neopentylglycol di(2-ethylhexanoate)]
Table 2
  Water solubility: <0.05 g
Table 3
  Water solubility: <0.05 g
